Assay results published in patent US8202987B2, “Method of obtaining conformational polymorph of sucrose” (National Central University, priority 2007, dated 2012).

Format: physicochemical
Protocol: Then an anti-solvent method is used at 60° C. to add methanol into the saturated sucrose solution for obtaining the new sucrose through re-crystallization. The new sucrose obtained has a melting point at 150° C., which is lower then 190° C. for the original sucrose. […] Therefore, the present invention contributes to sugar industry, drug industry and food industry.
Conclusively, a novel conformational polymorph of sucrose is obtained according to the present invention.

Compound	solubility relative to the original sucrose	stability relative to the original sucrose	solubility
OC[C@H]1O[C@@](CO)(O[C@H]2O[C@H](CO)[C@@H](O)[C@H](O)[C@H]2O)[C@@H](O)[C@@H]1O [new sucrose, sucrose]	lower solubility than the original sucrose	higher stability than the original sucrose	–
OC[C@H]1O[C@@](CO)(O[C@H]2O[C@H](CO)[C@@H](O)[C@H](O)[C@H]2O)[C@@H](O)[C@@H]1O [sucrose]	–	–	2873 milligrams sucrose per milliliter water
